# Structures can show the parent of a compound that is named as a salt. Where two headings read alike, the source gives them in different places.
# Assays:
# Assay in all cases: AK assay 384-well format, Prestwick library screening
# E. cloacae = assay type: cell-based, Enterobacter cloacae; conditions: Enterobacter cloacae, 3 h; planktonic E. cloacae; 50 μM final drug concentration; cutoff for positive-scoring molecules 3-fold increase; read-out: AK-based Prestwick Library Screening Results, E. cloacae (increase in extracellular AK activity)
# P. aeruginosa = assay type: cell-based, Pseudomonas aeruginosa; conditions: for fold induction at 50 µM: Pseudomonas aeruginosa, 3 h
# E. coli = assay type: cell-based, Escherichia coli; conditions: for fold induction at 50 µM: Escherichia coli, 3 h
# [1] = test system: A. baumannii strain 98-37-09; assay type: cell-based, Acinetobacter baumannii; conditions: for fold induction at 50 µM: Acinetobacter baumannii, 983709, 3 h
# [2] = test system: S. aureus strain USA300-0114; assay type: cell-based, Staphylococcus aureus; conditions: for fold induction at 50 µM: Staphylococcus aureus, USA300, 3 h
# E. faecium = assay type: cell-based, Enterococcus faecium; conditions: for fold induction at 50 µM: Enterococcus faecium, 3 h
# K. pneumoniae = assay type: cell-based, Klebsiella pneumoniae; conditions: for fold induction at 50 µM: Klebsiella pneumoniae, 3 h
# [3] = planktonic E. coli, 50 μM final drug concentration, 384-well, […]
smiles,measurement,setting,value
Oc1ccc(C=Cc2cc(O)cc(O)c2)cc1 [Resveratrol],fold induction at 50 µM,E. cloacae,0.1
C=C[C@H]1C[N@@]2CC[C@H]1C[C@@H]2[C@@H](O)c1ccnc2ccc(OC)cc12 [Quinidine hydrochloride monohydrate],fold induction at 50 µM,"P. aeruginosa; 50 μM final drug concentration, 384-well format, […], read-out: AK-based Prestwick Library Screening Results, P. aeruginosa (increase in extracellular AK activity)",0.9
same,fold induction at 50 µM,"E. coli; 50 μM final drug concentration, 384-well format, […], read-out: AK-based Prestwick Library Screening Results, E. coli (increase in extracellular AK activity)",1
same,fold induction at 50 µM,"[1]; 50 μM final drug concentration, 384-well format, […], read-out: AK-based Prestwick Library Screening Results, A. baumannii (increase in extracellular AK activity)",0.9
same,fold induction at 50 µM,"[2]; 50 μM final drug concentration, 384-well format, […], read-out: AK-based Prestwick Library Screening Results, S. aureus (increase in extracellular AK activity)",0.9
same,fold induction at 50 µM,"E. faecium; 50 μM final drug concentration, 384-well format, […], read-out: AK-based Prestwick Library Screening Results, E. faecium (increase in extracellular AK activity)",1
same,fold induction at 50 µM,"K. pneumoniae; 50 μM final drug concentration, 384-well format, […], read-out: AK-based Prestwick Library Screening Results, K. pneumoniae (increase in extracellular AK activity)",0.8
O=C1CC[C@@]2(O)[C@H]3Cc4ccc(O)c5c4[C@@]2(CCN3CC2CC2)[C@H]1O5 [Naltrexone hydrochloride dihydrate],fold induction at 50 µM,"P. aeruginosa; read-out: AK-based Prestwick Library Screening Results, P. aeruginosa (increase in extracellular AK activity)",0.8
same,fold induction at 50 µM,"E. coli; read-out: AK-based Prestwick Library Screening Results, E. coli (increase in extracellular AK activity)",0.9
same,fold induction at 50 µM,"[1]; read-out: AK-based Prestwick Library Screening Results, A. baumannii (increase in extracellular AK activity)",0.9
same,fold induction at 50 µM,"[2]; read-out: AK-based Prestwick Library Screening Results, S. aureus (increase in extracellular AK activity)",0.7
same,fold induction at 50 µM,"E. faecium; read-out: AK-based Prestwick Library Screening Results, E. faecium (increase in extracellular AK activity)",1
same,fold induction at 50 µM,"K. pneumoniae; read-out: AK-based Prestwick Library Screening Results, K. pneumoniae (increase in extracellular AK activity)",0.6
CN1[C@@H]2CC[C@H]1C[C@@H](OC(=O)C(CO)c1ccccc1)C2 (stereo partly shown) [Atropine sulfate monohydrate],fold induction at 50 µM,"P. aeruginosa; planktonic P. aeruginosa, 50 μM final drug concentration, […], read-out: AK-based Prestwick Library Screening Results, P. aeruginosa (increase in extracellular AK activity)",0.5
same,fold induction at 50 µM,"E. coli; planktonic E. coli, 50 μM final drug concentration, […], read-out: AK-based Prestwick Library Screening Results, E. coli (increase in extracellular AK activity)",0.6
same,fold induction at 50 µM,"[1]; planktonic A. baumannii, 50 μM final drug concentration, […], read-out: AK-based Prestwick Library Screening Results, A. baumannii (increase in extracellular AK activity)",0.5
same,fold induction at 50 µM,"[2]; planktonic S. aureus, 50 μM final drug concentration, […], read-out: AK-based Prestwick Library Screening Results, S. aureus (increase in extracellular AK activity)",0.5
same,fold induction at 50 µM,"E. faecium; planktonic E. faecium, 50 μM final drug concentration, […], read-out: AK-based Prestwick Library Screening Results, E. faecium (increase in extracellular AK activity)",0.8
same,fold induction at 50 µM,"K. pneumoniae; planktonic K. pneumoniae, 50 μM final drug concentration, […], read-out: AK-based Prestwick Library Screening Results, K. pneumoniae (increase in extracellular AK activity)",0.5
CCOC(=O)c1cncn1[C@H](C)c1ccccc1 [Etomidate],fold induction at 50 µM,"P. aeruginosa; 50 μM final drug concentration, […], read-out: AK-based Prestwick Library Screening Results, P. aeruginosa (fold increase in extracellular AK activity)",0.4
same,fold induction at 50 µM,"E. coli; 50 μM final drug concentration, […], read-out: AK-based Prestwick Library Screening Results, E. coli (fold increase in extracellular AK activity)",0.5
same,fold induction at 50 µM,"[1]; 50 μM final drug concentration, […], read-out: AK-based Prestwick Library Screening Results, A. baumannii (fold increase in extracellular AK activity)",0.3
same,fold induction at 50 µM,"[2]; 50 μM final drug concentration, […], read-out: AK-based Prestwick Library Screening Results, S. aureus (fold increase in extracellular AK activity)",0.3
same,fold induction at 50 µM,"E. faecium; 50 μM final drug concentration, […], read-out: AK-based Prestwick Library Screening Results, E. faecium (fold increase in extracellular AK activity)",0.9
same,fold induction at 50 µM,"K. pneumoniae; 50 μM final drug concentration, […], read-out: AK-based Prestwick Library Screening Results, K. pneumoniae (fold increase in extracellular AK activity)",0.4
CN(C)CCCN1c2ccccc2CCc2ccccc21 [Imipramine hydrochloride],fold induction at 50 µM,"P. aeruginosa; planktonic P. aeruginosa, 50 μM final drug concentration, 384-well, cutoff for positive-scoring molecules 3-fold increase, read-out: AK-based Prestwick Library Screening Results: P. aeruginosa (increase in extracellular AK activity)",1.1
same,fold induction at 50 µM,"E. coli; planktonic E. coli, 50 μM final drug concentration, 384-well, cutoff for positive-scoring molecules 3-fold increase, read-out: AK-based Prestwick Library Screening Results: E. coli (increase in extracellular AK activity)",1.2
same,fold induction at 50 µM,"[1]; planktonic A. baumannii, 50 μM final drug concentration, 384-well, cutoff for positive-scoring molecules 3-fold increase, read-out: AK-based Prestwick Library Screening Results: A. baumannii (increase in extracellular AK activity)",1.3
same,fold induction at 50 µM,"[2]; planktonic S. aureus, 50 μM final drug concentration, 384-well, cutoff for positive-scoring molecules 3-fold increase, read-out: AK-based Prestwick Library Screening Results: S. aureus (increase in extracellular AK activity)",1.2
same,fold induction at 50 µM,"E. faecium; planktonic E. faecium, 50 μM final drug concentration, 384-well, cutoff for positive-scoring molecules 3-fold increase, read-out: AK-based Prestwick Library Screening Results: E. faecium (increase in extracellular AK activity)",0.9
same,fold induction at 50 µM,"K. pneumoniae; planktonic K. pneumoniae, 50 μM final drug concentration, 384-well, cutoff for positive-scoring molecules 3-fold increase, read-out: AK-based Prestwick Library Screening Results: K. pneumoniae (increase in extracellular AK activity)",1
Clc1ccccc1CN1CCc2sccc2C1 [Ticlopidine hydrochloride],fold induction at 50 µM,"P. aeruginosa; 50 μM final drug concentration, 384-well format, cutoff for positive-scoring molecules 3-fold increase, read-out: AK-based Prestwick Library Screening Results, P. aeruginosa (increase in extracellular AK activity)",1.1
same,fold induction at 50 µM,"E. coli; 50 μM final drug concentration, 384-well format, cutoff for positive-scoring molecules 3-fold increase, read-out: AK-based Prestwick Library Screening Results, E. coli (increase in extracellular AK activity)",1.3
same,fold induction at 50 µM,"[1]; 50 μM final drug concentration, 384-well format, cutoff for positive-scoring molecules 3-fold increase, read-out: AK-based Prestwick Library Screening Results, A. baumannii (increase in extracellular AK activity)",1.1
same,fold induction at 50 µM,"[2]; 50 μM final drug concentration, 384-well format, cutoff for positive-scoring molecules 3-fold increase, read-out: AK-based Prestwick Library Screening Results, S. aureus (increase in extracellular AK activity)",0.8
same,fold induction at 50 µM,"E. faecium; 50 μM final drug concentration, 384-well format, cutoff for positive-scoring molecules 3-fold increase, read-out: AK-based Prestwick Library Screening Results, E. faecium (increase in extracellular AK activity)",1
same,fold induction at 50 µM,"K. pneumoniae; 50 μM final drug concentration, 384-well format, cutoff for positive-scoring molecules 3-fold increase, read-out: AK-based Prestwick Library Screening Results, K. pneumoniae (increase in extracellular AK activity)",1
COc1cc2nc(N3CCN(C(=O)c4ccco4)CC3)nc(N)c2cc1OC [Prazosin hydrochloride],fold induction at 50 µM,"P. aeruginosa; 50 μM final drug concentration, cutoff for positive-scoring molecules 3-fold increase, read-out: AK-based Prestwick Library Screening Results, P. aeruginosa (fold increase in extracellular AK activity)",1.1
same,fold induction at 50 µM,"E. coli; 50 μM final drug concentration, cutoff for positive-scoring molecules 3-fold increase, read-out: AK-based Prestwick Library Screening Results, E. coli (fold increase in extracellular AK activity)",1.2
same,fold induction at 50 µM,"[1]; 50 μM final drug concentration, cutoff for positive-scoring molecules 3-fold increase, read-out: AK-based Prestwick Library Screening Results, A. baumannii (fold increase in extracellular AK activity)",1.4
same,fold induction at 50 µM,"[2]; 50 μM final drug concentration, cutoff for positive-scoring molecules 3-fold increase, read-out: AK-based Prestwick Library Screening Results, S. aureus (fold increase in extracellular AK activity)",1.4
same,fold induction at 50 µM,"E. faecium; 50 μM final drug concentration, cutoff for positive-scoring molecules 3-fold increase, read-out: AK-based Prestwick Library Screening Results, E. faecium (fold increase in extracellular AK activity)",1.1
same,fold induction at 50 µM,"K. pneumoniae; 50 μM final drug concentration, cutoff for positive-scoring molecules 3-fold increase, read-out: AK-based Prestwick Library Screening Results, K. pneumoniae (fold increase in extracellular AK activity)",0.9
COc1ccc(CCN(C)CCCC(C#N)(c2ccc(OC)c(OC)c2)C(C)C)cc1OC.Cl (stereo not shown) [Verapamyl hydrochloride],AK-based Prestwick Library Screening Results: P. aeruginosa (increase in extracellular AK activity),"P. aeruginosa; planktonic P. aeruginosa, 50 μM final drug concentration, 384-well, cutoff for positive-scoring molecules 3-fold increase",1.2
same,AK-based Prestwick Library Screening Results: E. coli (increase in extracellular AK activity),E. coli; [3],1.3
same,AK-based Prestwick Library Screening Results: A. baumannii (increase in extracellular AK activity),"[1]; planktonic A. baumannii, 50 μM final drug concentration, 384-well, cutoff for positive-scoring molecules 3-fold increase",1.5
same,AK-based Prestwick Library Screening Results: S. aureus (increase in extracellular AK activity),"[2]; planktonic S. aureus, 50 μM final drug concentration, 384-well, cutoff for positive-scoring molecules 3-fold increase",1.2
same,AK-based Prestwick Library Screening Results: E. faecium (increase in extracellular AK activity),"E. faecium; planktonic E. faecium, 50 μM final drug concentration, 384-well, cutoff for positive-scoring molecules 3-fold increase",0.9
same,AK-based Prestwick Library Screening Results: K. pneumoniae (increase in extracellular AK activity),"K. pneumoniae; planktonic K. pneumoniae, 50 μM final drug concentration, 384-well, cutoff for positive-scoring molecules 3-fold increase",0.9
CN1[C@@H]2CC[C@H]1C[C@@H](OC(=O)[C@H](CO)c1ccccc1)C2 [Hyoscyamine (L)],AK-based Prestwick Library Screening Results: P. aeruginosa (increase in extracellular AK activity),"P. aeruginosa; planktonic P. aeruginosa, 50 μM final drug concentration, 384-well, […]",1.2
same,AK-based Prestwick Library Screening Results: E. coli (increase in extracellular AK activity),E. coli; [3],1.3
same,AK-based Prestwick Library Screening Results: A. baumannii (increase in extracellular AK activity),"[1]; planktonic A. baumannii, 50 μM final drug concentration, 384-well, […]",1.4
same,AK-based Prestwick Library Screening Results: S. aureus (increase in extracellular AK activity),"[2]; planktonic S. aureus, 50 μM final drug concentration, 384-well, […]",1.2
same,AK-based Prestwick Library Screening Results: E. faecium (increase in extracellular AK activity),"E. faecium; planktonic E. faecium, 50 μM final drug concentration, 384-well, […]",1.0
same,AK-based Prestwick Library Screening Results: K. pneumoniae (increase in extracellular AK activity),"K. pneumoniae; planktonic K. pneumoniae, 50 μM final drug concentration, 384-well, […]",1.2
